Calls of active or inactive are those of the source.

This is an account of results in ChEMBL document CHEMBL1201862, “PubChem BioAssay data set” (2004).

Assay [1] in a line: rescue of ΔF508 CFTR function, airway epithelium – human bronchial epithelial cells, plate reader, cherry-pick, two tests, dose response (AID 743267). It counts as functional, cell-based.
Assay [2] can be described thus: cells. The conditions noted are these: A549.
Assay [3] can be described thus: cells. The settings on record: HEK293.
In assay [4] the target is T1, Runt-related transcription factor 1/Core-binding factor subunit beta (Homo sapiens, UniProt Q01196+Q13951). Nature of the assay: Runt domain/CBFb-SMMHC interaction disruptors – biochemical, TR-FRET (AID 1438). It counts as protein assay. In general terms: Time-resolved FRET reads energy transfer from a long-lived donor to a nearby acceptor.
For assay [5], the target named is T1, Runt-related transcription factor 1/Core-binding factor subunit beta. Briefly: disruptors of Runt domain/CBFb-SMMHC interaction – biochemical, FRET, Cerulean-Runt, Venus-CBFb-SMMHC, uHTS, […] (AID 1434). It counts as protein assay.
Assay [6] addresses T2, Small ubiquitin-related modifier 1 (Homo sapiens, UniProt P63165). Nature of the assay: SUMO1 protein interaction blockers, potency – biochemical, fluorescence polarization, uHTS hits, dose response (AID 624382). The format is functional. The conditions noted are these: read-out: IC50_Mean. (Polarisation of emitted light reports the rotation of a fluorescent probe.)
The target of a further assay is Albumin (Bos taurus, UniProt P02769). Nature of the assay: Counterscreen for inhibitors of T-cell receptor (TCR)-CD3 interaction: Fluorescence-based biochemical high throughput dose response assay to identify inhibitors of T-cell receptor (TCR)-CD3 interaction using a TAMRA-labeled BSA probe. The format is functional. Background: The purpose of a counterscreen is to sort out artefacts and off-target activity.

In assay [7] the target is Tyrosine-protein phosphatase non-receptor type 11 (Homo sapiens, UniProt Q06124). Briefly: PTPN11 enzyme inhibitors – biochemical, selectivity assay for STEP inhibitor project, dose response (AID 602367). The format is functional. The settings on record: read-out: IC50_Mean.
In assay [8] the target is DNA (cytosine-5)-methyltransferase 1 (Homo sapiens, UniProt P26358). Briefly: inhibition of DNA methylation by DNMT1 – biochemical, fluorescent molecular beacon, confirmation (AID 602386). The format is functional.
The target of assay [9] is Tyrosine-protein phosphatase non-receptor type 5 (Homo sapiens, UniProt P54829). Nature of the assay: PTPN5 enzyme inhibition – biochemical, fluorescence intensity, uHTS hits, confirmation (AID 602372). The conditions noted are these: read-out: IC50_Mean. It counts as functional.
Assay [10] addresses T2, Small ubiquitin-related modifier 1. Nature of the assay: SUMO1 protein-protein binding blockers, potency – biochemical, FRET, dose response (AID 624383). The format is functional. The conditions noted are these: read-out: IC50_Mean.
The target of assay [11] is Dual specificity protein phosphatase 3 (Homo sapiens, UniProt P51452). Briefly: VHR phosphatase inhibition, dose response, selectivity assay for STEP inhibitor project, biochemical (AID 602374). It counts as functional. The settings on record: read-out: IC50_Mean.
Assay [12] in a line: activation of miR-122 Renilla sensor silencing – cell-based, Huh7 psiCHECK-miR122, Renilla luciferase, cherry-picked, dose response (AID 651956).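 Also: huh7 hepatoma cells stably carrying a psiCHECK-2 miR-122 sensor plasmid; renilla luciferase signal reporting endogenous miR-122 activity after 48 h compound exposure.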 The format is functional.
The nature of assay [13]: TNFa-induced NF-kB reporter signal decrease – HEK293 LMP1 reporter cells, dry powder, set 2, selectivity assay for EBV LMP1 NF-kB inhibitor project, dose response (AID 624369). It counts as functional.
Another assay deals with A549. Nature of the assay: viability loss in A549 cells – cell-based, plate reader, cherry-pick samples, cytotoxicity control, dose response (AID 687028). It counts as functional. The settings on record: Homo sapiens.
Assay [14] can be described thus: viability loss in mouse NIH3T3 cells – cell-based, CellTiter-Glo luminescence, dry powder, cytotoxicity control for PglD inhibitor project, dose response (AID 652044). It counts as functional.
Assay [15] can be described thus: viability loss in LCL cells – cell-based, plate reader, dry powder, set 2, cytotoxicity control, dose response (AID 624367). It counts as functional.
Assay [16] is described as follows: OVCAR-3 cell viability loss – plate reader, dry powder samples, PAX8 inhibitor project, dose response (AID 743044). It counts as functional, cell-based.
A short description of assay [17]: general cell-killing toxicity readout – plate reader, dry powder samples, cytotoxicity control for PAX8 inhibitor project, dose response (AID 743021). It counts as functional, cell-based.
A further assay deals with Paired box protein Pax-8 (Homo sapiens, UniProt Q06710). Briefly: PAX8 transcriptional activity inhibition in RMG-I – RMG-I cells, luciferase, cherry-pick, dose response (AID 687027).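 Also: luciferase reporter driven by Pax8 target thyroperoxidase promoter measured by SteadyGlo luminescence.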 The format is functional, cell-based.
Assay [18] can be described thus: OVCAR8 cell viability loss – plate reader, dry powder samples, PAX8 project, dose response (AID 743197). The format is functional, cell-based. The settings on record: OVCAR-8.
Another assay deals with Protein Wnt-3a (Mus musculus, UniProt P27467). Nature of the assay: SAR analysis of small molecule antagonists of Gli-SUFU in a Wnt3a luminescent reporter assay. It counts as functional.
Assay [19] in a line: Cytotoxicity screening for potential Inhibitors of Bacterial Capsule Biogenesis (4). The format is functional.
The nature of assay [20]: general mammalian cell viability loss – activator set, cherry-pick, cytotoxicity control for miR-122 modulator project, dose response (AID 720690).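 Also: HEK293T human cells scored for general mammalian cytotoxicity.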 The format is functional, cell-based.
Assay [21] in a line: general mammalian cell viability loss – inhibitor set, cherry-pick, set 2, cytotoxicity control for miR-122 modulator project, dose response (AID 720697). The format is functional, cell-based.
The nature of assay [22]: COV434 cell viability loss – plate reader, dry powder, SA7, cytotoxicity control for PAX8 inhibitor project, dose response (AID 743145). It counts as functional, cell-based.
Assay [23] can be described thus: inhibitors acting on PAX2 in cells – cell-based, plate reader, dry powder samples, selectivity assay for PAX8 inhibitor project, dose response (AID 743048).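 Also: HEK293 cells carrying a WT1 promoter luciferase reporter driven by expressed Pax2; potency is for inhibition of Pax2 driven reporter signal.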 It counts as functional.
Assay [24] can be described thus: PAX8-dependent cell viability loss – plate reader, dry powder, dose response (AID 743049). The format is functional, cell-based.
Assay [25] is described as follows: fluconazole-exposed Candida albicans growth modulators – fluorescence, retest, confirmation (AID 2467). It counts as functional, cell-based.
Assay [26] in a line: NIH3T3 cell viability loss – ATP luminescence, mouse fibroblasts, counter-screen, dose response (AID 2010).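 Also: cells exposed to compound for about 90 hours before reading.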 The format is functional, cell-based.
A short description of assay [27]: Trypanosoma cruzi growth suppression in host cells – NIH3T3 host cells, beta-gal luminescence, confirmation (AID 2044).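 Also: intracellular parasites grown in NIH/3T3 mouse fibroblasts as host cells; luminescent beta-galactosidase reporter signal from transgenic T. cruzi replicating inside host cells; inhibitors lower the luminescence signal.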 It counts as functional, cell-based.
A further assay relates to HeLa. Nature of the assay: viability loss in HeLa cells – cell-based, ATP luminescence, cherry-pick samples, cytotoxicity control, dose response (AID 687004). It counts as functional. The settings on record: Homo sapiens.
The nature of assay [28]: NIH-3T3 fibroblast cytotoxicity, dose response, cytotoxicity control, cell-based, fluorescence, Alamar Blue, secondary assay (AID 2327).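 Also: NIH-3T3 mouse fibroblasts cultured with fluconazole at 8 µg/mL.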 It counts as functional.
Assay [29] relates to Cryptococcus neoformans. Nature of the assay: Cryptococcus growth inhibition by alamar blue – cell lysis, cherry-picks, replicate tests, mechanism study for C. neoformans antifungal project, dose response (AID 686999). It counts as functional, organism-based.
The test system of assay [30] is Cryptococcus neoformans. Briefly: PubChem AID 686997. The format is functional, organism-based.

T2 sequence (P63165 whole entry): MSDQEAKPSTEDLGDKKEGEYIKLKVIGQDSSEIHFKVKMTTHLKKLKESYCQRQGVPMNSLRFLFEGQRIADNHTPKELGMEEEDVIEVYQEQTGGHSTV
T1 sequence (Q01196 whole entry, the tested form may be a part): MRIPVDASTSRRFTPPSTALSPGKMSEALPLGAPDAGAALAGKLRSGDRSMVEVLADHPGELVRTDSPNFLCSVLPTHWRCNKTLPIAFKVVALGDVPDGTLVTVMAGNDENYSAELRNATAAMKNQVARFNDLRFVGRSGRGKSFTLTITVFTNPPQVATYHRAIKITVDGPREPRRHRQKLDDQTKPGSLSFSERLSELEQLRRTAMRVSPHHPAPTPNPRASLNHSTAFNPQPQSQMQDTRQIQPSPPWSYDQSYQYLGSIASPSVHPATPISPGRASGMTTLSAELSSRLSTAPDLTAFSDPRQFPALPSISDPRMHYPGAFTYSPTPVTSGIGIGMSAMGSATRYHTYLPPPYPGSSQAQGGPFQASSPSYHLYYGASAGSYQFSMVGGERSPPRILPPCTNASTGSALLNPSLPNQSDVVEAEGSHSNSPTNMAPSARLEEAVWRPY
T1 sequence (Q13951 whole entry, the tested form may be a part): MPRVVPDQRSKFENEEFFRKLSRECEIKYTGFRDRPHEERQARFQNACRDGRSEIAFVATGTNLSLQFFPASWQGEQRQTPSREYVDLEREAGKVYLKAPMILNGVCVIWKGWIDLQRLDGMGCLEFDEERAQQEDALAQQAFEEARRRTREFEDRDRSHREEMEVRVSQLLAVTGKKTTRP
Chain of Albumin (P02769 whole entry): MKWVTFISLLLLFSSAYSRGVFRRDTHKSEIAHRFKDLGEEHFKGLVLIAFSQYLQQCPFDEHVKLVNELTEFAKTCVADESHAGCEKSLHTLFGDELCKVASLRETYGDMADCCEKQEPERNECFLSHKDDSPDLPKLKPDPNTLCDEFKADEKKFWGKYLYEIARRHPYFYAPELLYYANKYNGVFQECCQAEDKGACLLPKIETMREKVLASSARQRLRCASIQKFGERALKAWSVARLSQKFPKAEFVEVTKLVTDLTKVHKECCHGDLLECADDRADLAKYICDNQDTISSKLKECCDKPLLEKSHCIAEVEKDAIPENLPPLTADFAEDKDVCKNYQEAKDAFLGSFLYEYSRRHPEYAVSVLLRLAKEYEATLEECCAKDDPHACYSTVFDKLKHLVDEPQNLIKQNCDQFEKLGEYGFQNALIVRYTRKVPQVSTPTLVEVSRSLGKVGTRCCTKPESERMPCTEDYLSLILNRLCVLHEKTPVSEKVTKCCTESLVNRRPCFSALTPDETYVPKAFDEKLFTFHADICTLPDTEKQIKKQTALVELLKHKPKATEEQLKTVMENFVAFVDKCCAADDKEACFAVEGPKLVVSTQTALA
Chain of Dual specificity protein phosphatase 3 (P51452 whole entry): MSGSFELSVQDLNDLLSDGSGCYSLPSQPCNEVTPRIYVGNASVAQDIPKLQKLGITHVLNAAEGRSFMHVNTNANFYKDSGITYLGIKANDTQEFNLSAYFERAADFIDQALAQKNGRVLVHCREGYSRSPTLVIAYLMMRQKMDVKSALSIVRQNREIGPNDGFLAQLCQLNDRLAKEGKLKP
Chain of Tyrosine-protein phosphatase non-receptor type 5 (P54829 whole entry): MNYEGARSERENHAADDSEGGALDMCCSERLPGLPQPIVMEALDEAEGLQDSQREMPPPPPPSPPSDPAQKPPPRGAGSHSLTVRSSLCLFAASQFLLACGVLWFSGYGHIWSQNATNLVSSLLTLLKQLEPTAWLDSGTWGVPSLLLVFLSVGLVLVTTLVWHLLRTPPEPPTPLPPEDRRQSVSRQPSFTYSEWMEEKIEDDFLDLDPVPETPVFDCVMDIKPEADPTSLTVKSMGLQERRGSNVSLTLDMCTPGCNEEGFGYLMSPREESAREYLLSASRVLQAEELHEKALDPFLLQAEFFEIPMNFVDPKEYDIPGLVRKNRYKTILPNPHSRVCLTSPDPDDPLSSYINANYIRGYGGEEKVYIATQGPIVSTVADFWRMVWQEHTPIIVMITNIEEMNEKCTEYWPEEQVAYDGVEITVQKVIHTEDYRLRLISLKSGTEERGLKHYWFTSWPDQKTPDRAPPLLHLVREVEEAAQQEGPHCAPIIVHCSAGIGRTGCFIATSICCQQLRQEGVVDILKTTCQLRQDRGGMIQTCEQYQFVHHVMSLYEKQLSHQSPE
Chain of DNA (cytosine-5)-methyltransferase 1 (P26358 whole entry): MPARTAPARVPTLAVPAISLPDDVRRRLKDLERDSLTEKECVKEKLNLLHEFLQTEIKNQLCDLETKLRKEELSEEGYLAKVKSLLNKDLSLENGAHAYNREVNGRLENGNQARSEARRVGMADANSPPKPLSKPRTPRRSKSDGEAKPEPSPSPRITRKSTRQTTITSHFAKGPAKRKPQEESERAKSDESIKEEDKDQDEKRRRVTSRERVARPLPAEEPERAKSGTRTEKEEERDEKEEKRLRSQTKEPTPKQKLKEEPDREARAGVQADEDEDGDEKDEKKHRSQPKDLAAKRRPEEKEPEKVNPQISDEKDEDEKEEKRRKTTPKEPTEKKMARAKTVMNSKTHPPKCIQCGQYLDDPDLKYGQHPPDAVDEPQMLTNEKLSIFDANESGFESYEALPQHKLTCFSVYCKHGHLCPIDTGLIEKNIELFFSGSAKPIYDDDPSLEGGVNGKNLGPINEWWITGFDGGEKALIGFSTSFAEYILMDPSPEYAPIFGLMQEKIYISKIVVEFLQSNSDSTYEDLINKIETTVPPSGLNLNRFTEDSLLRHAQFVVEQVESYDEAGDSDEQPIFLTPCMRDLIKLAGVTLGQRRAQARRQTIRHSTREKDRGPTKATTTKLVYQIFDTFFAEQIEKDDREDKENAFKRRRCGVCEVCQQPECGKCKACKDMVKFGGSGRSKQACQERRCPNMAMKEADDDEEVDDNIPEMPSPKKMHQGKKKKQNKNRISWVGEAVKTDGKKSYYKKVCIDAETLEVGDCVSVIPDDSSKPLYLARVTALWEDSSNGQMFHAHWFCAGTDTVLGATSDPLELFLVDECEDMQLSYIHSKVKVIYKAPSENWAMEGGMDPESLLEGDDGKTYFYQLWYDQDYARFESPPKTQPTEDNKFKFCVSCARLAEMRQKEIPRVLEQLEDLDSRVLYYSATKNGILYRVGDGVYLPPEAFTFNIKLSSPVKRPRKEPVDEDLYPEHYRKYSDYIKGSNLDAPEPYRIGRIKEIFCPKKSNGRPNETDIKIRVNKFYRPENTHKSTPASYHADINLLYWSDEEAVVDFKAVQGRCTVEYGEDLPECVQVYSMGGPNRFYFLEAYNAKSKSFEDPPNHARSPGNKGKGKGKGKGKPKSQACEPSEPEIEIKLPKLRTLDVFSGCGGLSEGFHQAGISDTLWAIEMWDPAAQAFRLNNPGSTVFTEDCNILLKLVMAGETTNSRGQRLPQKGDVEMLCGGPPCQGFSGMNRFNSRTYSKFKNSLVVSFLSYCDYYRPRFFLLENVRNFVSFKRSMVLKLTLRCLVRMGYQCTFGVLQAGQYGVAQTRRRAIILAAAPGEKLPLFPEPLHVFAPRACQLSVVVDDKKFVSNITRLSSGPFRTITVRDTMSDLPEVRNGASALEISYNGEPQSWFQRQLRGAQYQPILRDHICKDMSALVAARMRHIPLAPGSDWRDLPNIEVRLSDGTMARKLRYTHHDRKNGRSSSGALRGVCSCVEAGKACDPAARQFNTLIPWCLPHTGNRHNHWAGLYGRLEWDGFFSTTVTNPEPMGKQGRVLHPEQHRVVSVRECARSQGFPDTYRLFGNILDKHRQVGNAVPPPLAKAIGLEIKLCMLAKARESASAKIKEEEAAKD
Chain of Tyrosine-protein phosphatase non-receptor type 11 (Q06124 whole entry): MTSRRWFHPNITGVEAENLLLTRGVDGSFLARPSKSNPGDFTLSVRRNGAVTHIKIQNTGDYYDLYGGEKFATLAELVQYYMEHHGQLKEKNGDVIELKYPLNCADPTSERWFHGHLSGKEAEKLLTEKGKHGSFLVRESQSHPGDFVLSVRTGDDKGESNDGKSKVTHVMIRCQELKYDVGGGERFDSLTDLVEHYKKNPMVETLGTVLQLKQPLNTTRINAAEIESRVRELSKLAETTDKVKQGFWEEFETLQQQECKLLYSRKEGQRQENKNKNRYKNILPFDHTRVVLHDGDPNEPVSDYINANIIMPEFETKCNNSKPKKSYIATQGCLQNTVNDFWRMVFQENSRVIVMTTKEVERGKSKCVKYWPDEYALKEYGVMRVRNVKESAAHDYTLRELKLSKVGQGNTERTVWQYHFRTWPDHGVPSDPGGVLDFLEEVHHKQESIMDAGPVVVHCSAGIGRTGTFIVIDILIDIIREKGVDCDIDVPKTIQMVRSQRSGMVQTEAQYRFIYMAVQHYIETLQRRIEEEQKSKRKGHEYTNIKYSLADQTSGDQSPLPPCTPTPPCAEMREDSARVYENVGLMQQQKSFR
Chain of Protein Wnt-3a (P27467 whole entry): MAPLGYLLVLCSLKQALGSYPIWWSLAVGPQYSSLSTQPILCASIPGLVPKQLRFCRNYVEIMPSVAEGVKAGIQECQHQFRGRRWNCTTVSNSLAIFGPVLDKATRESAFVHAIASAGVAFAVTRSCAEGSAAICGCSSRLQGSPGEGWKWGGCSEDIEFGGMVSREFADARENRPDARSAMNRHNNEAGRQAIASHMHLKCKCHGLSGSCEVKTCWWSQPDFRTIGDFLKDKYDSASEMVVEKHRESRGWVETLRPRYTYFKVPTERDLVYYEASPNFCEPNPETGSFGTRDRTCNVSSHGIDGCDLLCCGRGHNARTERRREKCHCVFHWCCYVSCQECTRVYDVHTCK

On to `CCOC(=O)c1[nH]c(C)c(C(=O)C2=C(O)C(=O)N(CCCN3CCOCC3)C2c2cccs2)c1C` (stereo not given), for which the AC50 (usually the midpoint of the concentration-response curve, whichever way the signal moves) in assay [1] was 19.4 µM (active).
For the compound `COc1ccc(C2c3ccc(O)cc3Oc3ncn4nc(-c5ccccn5)nc4c32)cc1` (stereo not given), the AC50 in “cells [2]” is > 52 µM (inactive); in “cells [3]”, > 24 µM (inactive). Further, the values for the IC50 in assay [4] and in assay [5] were > 100 µM (inactive) and 22.9 µM (active), respectively.
For `O=C(N/N=C/c1ccoc1)c1cc(O)cc(O)c1`, the IC50 in assay [6] is > 66.6 µM (inactive); on Albumin, > 94 µM (inactive); in assay [7], 0.952 µM (active); in [8] it was 7.09 µM (active); in assay [9] it was 33.9 µM (inactive); in assay [10] it was 12.4 µM (active). The IC50 in [11] is 1.55 µM (active).
For the compound `CC(C)c1ccc(NC(=O)C[C@H]2CC[C@H]3[C@@H](COc4ccc(NC(=O)Nc5ccc(F)c(F)c5)cc4C(=O)N3C)O2)cc1`, the concentration at half-maximal activity (AC50) in [12] was 14.3 µM (active). Also, the AbsAC35 in [13] stood at 91.94 µM.
In the case of `Cc1ccc2ccc(C(Nc3ccccc3)c3ccccc3)c(O)c2n1` (stereo not given), the concentration at half-maximal activity (AC50) in the assay on A549 is 17.9 µM (active).
For the compound `O=C(C[C@@H]1CC[C@H]2[C@@H](COC[C@H](O)CN2C(=O)Nc2cccc(F)c2)O1)NCc1ccccc1F`, in assay [14], the AC50 is > 52 µM (inactive).
`O=C(Nc1ccc(C(F)(F)F)cc1)Nc1ccc2c(c1)[C@@H]1C[C@H](CC(=O)N3CCc4ccccc4C3)O[C@@H](CO)[C@@H]1O2` had an AbsAC35 in assay [15] of 85.24 µM.
With `C[C@@H]1CCCCO[C@@H](CN(C)C(=O)c2ccccc2)[C@@H](C)CN([C@@H](C)CO)C(=O)c2cc(NC(=O)Nc3ccc(C(F)(F)F)cc3)ccc2O1`, the AC50 in [16] is 7.75 µM (active); in [17], 44.3 µM (active); at Paired box protein Pax-8 it was 8.77 µM (active); in assay [18], > 70 µM (inactive).
Turning to `O=C(Nc1cc(N2CCCC2)ncn1)c1ccccc1F`, the IC50 on Protein Wnt-3a is 0.696 µM (active).
As for `CC(C)(C)OC(=O)Nc1nc2ccc(C(=O)Nc3ccnc(Cl)c3)cc2s1`, the CC50 – broadly, the concentration that lowers cell viability or growth by half – in assay [19] was > 300 µM (inactive).
As to `C[C@@H]1CN([C@@H](C)CO)S(=O)(=O)c2ccc(-c3cncnc3)cc2O[C@@H]1CN(C)Cc1ccc(Oc2ccccc2)cc1`, the half-maximal activity concentration (AC50) in assay [20] was 24.9 µM (active); in assay [21], 22.7 µM (active).
Consider `COCC(=O)N1[C@H](CO)[C@H](c2ccc(-c3cccnc3)cc2)[C@@H]1C#N`, for which the half-maximal activity concentration (AC50) is 0.00824 µM (active) in assay [22], > 32 µM (inactive) in assay [23] and > 70 µM (inactive) in [24].
With `NC(=S)N/N=C/c1ccc(-c2cc(Cl)ccc2Cl)o1`, the concentration giving a half-maximal response (EC50) (in general, the midpoint of the concentration-response curve) in [25] was 4.47 µM (active); in assay [26] it was > 60 µM (not active); in assay [27], 0.627 µM (active); in [28] it was 15.4 µM (active). Further, the concentration at half-maximal activity (AC50) in the assay on HeLa is 17.6 µM (active); in the assay with Cryptococcus neoformans [29] it was 18.1 µM (active); in the assay with Cryptococcus neoformans [30], 12.2 µM (active).
